# ChEMBL document CHEMBL1201862, “PubChem BioAssay data set” (2004)
#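 96-well plates; 48 h exposure; 5 concentrations. Endpoints by linear interpolation between flanking doses. Not reached: highest tested concentration assigned. Abbreviation: GI50, concentration required for 50% inhibition of growth.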 Calls of active or inactive are those of the source. No stated cut-off is given here; in the data, active = GI50 up to about 1.1 µM and inactive = higher.
# Assays:
# Assay in all cases: inhibition of tumour cell growth, NCI panel, 48 h
# CAKI-1 = tested on: CAKI-1
# CCRF-CEM = tested on: CCRF-CEM
# DU-145 = tested on: DU-145
# HCT-116 = tested on: HCT-116
# HOP-62 = tested on: HOP-62
# HOP-92 = tested on: HOP-92
# KM12 = tested on: KM12
# MCF7 = tested on: MCF7
# MOLT-4 = tested on: MOLT-4
# Malme-3M = tested on: Malme-3M
# NCI-H226 = tested on: NCI-H226
# NCI-H460 = tested on: NCI-H460
# OVCAR-3 = tested on: OVCAR-3
# OVCAR-5 = tested on: OVCAR-5
# SK-MEL-5 = tested on: SK-MEL-5
# SNB-75 = tested on: SNB-75
# T47D = tested on: T47D
# TK-10 = tested on: TK-10
# UACC-62 = tested on: UACC-62
# UO-31 = tested on: UO-31
Compound,GI50 (CAKI-1),GI50 (CCRF-CEM),GI50 (DU-145),GI50 (HCT-116),GI50 (HOP-62),GI50 (HOP-92),GI50 (KM12),GI50 (MCF7),GI50 (MOLT-4),GI50 (Malme-3M),GI50 (NCI-H226),GI50 (NCI-H460),GI50 (OVCAR-3),GI50 (OVCAR-5),GI50 (SK-MEL-5),GI50 (SNB-75),GI50 (T47D),GI50 (TK-10),GI50 (UACC-62),GI50 (UO-31)
FC(F)(F)c1ccc2c(c1)nc(-c1ccc(Cl)cc1)n2CC1CCCN2CCCCC12 (centres undefined),17.1 µM (inactive),10.8 µM (inactive),14.9 µM (inactive),14.3 µM (inactive),13.9 µM (inactive),12.8 µM (inactive),15.8 µM (inactive),14.5 µM (inactive),0.233 µM (active),15.3 µM (inactive),14.8 µM (inactive),16.6 µM (inactive),18.4 µM (inactive),6.41 µM (inactive),14 µM (inactive),6.84 µM (inactive),16.7 µM (inactive),14.9 µM (inactive),14.8 µM (inactive),10.7 µM (inactive)
CN(C)c1ccc(/C=N/c2ccc(-c3nc4ccccc4s3)cc2)cc1,28.6 µM (inactive),0.578 µM (active),35.6 µM (inactive),33 µM (inactive),24.5 µM (inactive),22.4 µM (inactive),24.9 µM (inactive),< 0.01 µM (active),23.2 µM (inactive),31.6 µM (inactive),32 µM (inactive),27.4 µM (inactive),15.9 µM (inactive),40.2 µM (inactive),19.3 µM (inactive),26.3 µM (inactive),20 µM (inactive),30.1 µM (inactive),8.59 µM (inactive),43.8 µM (inactive)
Cc1ccc(/N=N\c2c(O)c(S(=O)(=O)O)cc3cc(S(=O)(=O)O)ccc23)c(C)c1,> 100 µM (inactive),> 100 µM (inactive),> 100 µM (inactive),> 100 µM (inactive),> 100 µM (inactive),> 100 µM (inactive),> 100 µM (inactive),> 100 µM (inactive),> 100 µM (inactive),> 100 µM (inactive),> 100 µM (inactive),> 100 µM (inactive),> 100 µM (inactive),> 100 µM (inactive),> 100 µM (inactive),> 100 µM (inactive),> 100 µM (inactive),> 100 µM (inactive),> 100 µM (inactive),> 100 µM (inactive)
CCCCOCCOC1=CC(=O)c2c(O)ccc(O)c2C1=O,1.78 µM (inactive),1.22 µM (inactive),1.78 µM (inactive),1.49 µM (inactive),0.458 µM (active),2.56 µM (inactive),1.75 µM (inactive),1.31 µM (inactive),1.28 µM (inactive),0.24 µM (active),1.72 µM (inactive),1.82 µM (inactive),1.67 µM (inactive),–,0.216 µM (active),1.57 µM (inactive),2.06 µM (inactive),3.1 µM (inactive),1.51 µM (inactive),1.64 µM (inactive)
CCC(O)CC1OC2(CCC1C)CC1OC(=O)/C=C\C(C)(O)C(O)C(C)C(O)C(OC3CC(OC)C(O)C(C)O3)C(O)C(C)(O)CCC/C=C/C3CC(C)COC3(O)CC(O2)C1C (centres undefined),1.24 µM (inactive),0.23 µM (active),2.67 µM (inactive),5.08 µM (inactive),2.93 µM (inactive),25.6 µM (inactive),2.43 µM (inactive),< 0.01 µM (active),0.335 µM (active),10.7 µM (inactive),0.0904 µM (active),6.62 µM (inactive),0.585 µM (active),6.18 µM (inactive),< 0.01 µM (active),2.37 µM (inactive),< 0.0107 µM (active),1.6 µM (inactive),9.04 µM (inactive),11.2 µM (inactive)
COC(=O)c1c(OC(C)=O)ccc2c1c1c(OC(C)=O)c3ccccc3c(OC(C)=O)c1n2Cc1ccccc1,9.62 µM (inactive),6.68 µM (inactive),11.1 µM (inactive),3.96 µM (inactive),8.61 µM (inactive),0.658 µM (active),1.49 µM (inactive),13.5 µM (inactive),7.46 µM (inactive),7.8 µM (inactive),10.9 µM (inactive),2.24 µM (inactive),1.21 µM (inactive),7.46 µM (inactive),3.02 µM (inactive),1.76 µM (inactive),1.16 µM (inactive),13 µM (inactive),2.72 µM (inactive),2.21 µM (inactive)
Cc1cc2cc3cc(C)c(N)cc3nc2cc1N [ACRIDINE YELLOW],0.791 µM (active),0.383 µM (active),0.647 µM (active),0.208 µM (active),0.465 µM (active),0.726 µM (active),0.508 µM (active),0.475 µM (active),0.237 µM (active),1.26 µM (inactive),0.869 µM (active),0.358 µM (active),0.522 µM (active),0.798 µM (active),2.27 µM (inactive),1.53 µM (inactive),0.865 µM (active),0.635 µM (active),0.942 µM (active),0.979 µM (active)
